# Laboratory results reported in patent US11667643B2, “RIP1K inhibitors” (priority 2020, dated 2023).
# Read-outs that look alike come from different tables or passages of the source.
# Tests used:
# L929 cells = assay: L929 cell necroptosis assay (TNFa + zVAD, CellTiter-Glo recovery), functional murine RIP1 assay; type: cell-based; conditions: Mus musculus, L929, 18 h, read-out: L929-CTG-recovery, L929, TNFa + zVAD (IC50), L929 cells, zVAD-fmk, TNFa 2 ng/mL, 18 hours, CellTiter-Glo
# Method: (§1) In this example, U937 and L929 cells were exposed to compounds of the present disclosure and a cell necroptosis assay was conducted to evaluate compound activity in functional human RIP1 and murine RIP1 assays.
# (§2) U937 and L929 cells were obtained from the American Type Culture Collection (Manassa, Va., USA). Both cells were maintained in logarithmic growth phase in complete RPMI 1640 media (Sigma, ST Louis, Mo., USA) supplemented with 10% fetal bovine serum (Sigma, ST Louis, Mo., USA) at 37° C. with 5% CO2. For necroptosis assay, L929 cells were plated for 18 h in 100 μL/well medium at 10K cells/well in Costar 96-well black clear-bottom plates (Fisher Scientific, Hampton, N.H., USA); U937 cells were plated on the day of the assay in 50 μL/well medium containing 60 uM zVAD-fmk (Lonza, Basel, Switzerland) at 50K cells/well. Medium from L929 cells were removed from the 96-well plates and replaced with 50 μL/well new medium containing 40 uM zVAD-fmk. Each compound of the present disclosure evaluated in this example was serially diluted in DMSO from 2.5 mM in 4-fold dilutions, and then diluted 1:125 in complete medium. 50 μL/well 2× of the compound was then added to the cells in the plates. The cells were pre-incubated with the compound for 1 hour at 37° C. with 5% CO2 and before addition of 10 μL/well 11×TNFa (Peprotech, Rocky Hill, N.J., USA) to give a final concentration of 2 ng/mL for TNFa. The relative amount of necroptosis cells was determined by luminescent using a Wallac Victor2 Luminometer (PerkinElmer, Waltham, Mass., USA) and a CellTiter-Glo® Luminescent Cell Viability Reagent Assay (Promega, Madison, Wis., USA) added per manufacturer instructions after 18 hours of TNFa stimulation at 37° C. with 5% CO2. This example establishes that embodiments of the compounds described herein have unexpectedly potent activity against human RIP1 and murine RIP1, which allows their assessment in in vivo mouse models of disease.
# RIPK1 = RIPK1 (Homo sapiens (Human), UniProt Q13546); assay: biochemical; type: biochemical
# Method: In this example, compounds of the disclosure were evaluated using a biochemical assay using the ADP-Glo™ technology.
# ADP-Glo™ (Promega, Madison, Wis., USA) reagents were thawed at ambient temperature. Kinase Detection Reagent was prepared by mixing kinase detection buffer with the lyophilized kinase detection substrate.
# A […] stock volume of 5× Reaction Kinase Buffer was made by mixing 1000 μl of 1M MgCl2, 500 μl of 1M Tris-HCL pH7.4, 0.5 mg/ml (25 mg) of BSA, and 3475 μl of distilled H2O. A 3 ml 2× working stock volume of Reaction Kinase Buffer was made containing a final concentration of 100 μM DTT and 4 mM MnCl2.
# Components of RIPK1 enzyme (Rigel Pharmaceuticals, South San Francisco, Calif., USA) were thawed on ice. Diluted RIPK1 was prepared in 1× Kinase Reaction Buffer (diluted from 2× buffer) to 31 ng/well.
# 1.0 ul of diluted compound was added to a 384 well plate in duplicate. […] The final reaction volume was 5.0 μl. The plate was quickly centrifuged and the reaction was incubated at 30° C. for 30 minutes. Adding 5 μl of ADP-Glo™ terminated the reaction. The plate was quickly centrifuged and the reaction was incubated at room temperature for 40 minutes. Kinase Detection Reagent was then added and incubated at room temperature for 30 minutes. The relative light unit (RLU) of kinase reaction was determined by luminescent (Luminescence 0.1 s) using a Wallac Victor2 Luminometer (PerkinElmer, Waltham, Mass., USA).
# U937 cells = assay: U937 cell necroptosis assay (TNFa + zVAD, CellTiter-Glo recovery), functional human RIP1 assay; type: cell-based; conditions: Homo sapiens, U-937, 18 h, read-out: U937 Zvad TNF CTG Recovery, U937, TNFa + zVAD (IC50), U937 cells, zVAD-fmk, TNFa 2 ng/mL, 18 hours, CellTiter-Glo
# Method: as §1, §2
# [1] = RIPK1 enzyme 31 ng/well, 30° C. for 30 minutes, luminescence, read-out: RIPK1 ADP-Glo Kinase (IC50)
# Chain of RIPK1 (Q13546 whole entry, species assumed): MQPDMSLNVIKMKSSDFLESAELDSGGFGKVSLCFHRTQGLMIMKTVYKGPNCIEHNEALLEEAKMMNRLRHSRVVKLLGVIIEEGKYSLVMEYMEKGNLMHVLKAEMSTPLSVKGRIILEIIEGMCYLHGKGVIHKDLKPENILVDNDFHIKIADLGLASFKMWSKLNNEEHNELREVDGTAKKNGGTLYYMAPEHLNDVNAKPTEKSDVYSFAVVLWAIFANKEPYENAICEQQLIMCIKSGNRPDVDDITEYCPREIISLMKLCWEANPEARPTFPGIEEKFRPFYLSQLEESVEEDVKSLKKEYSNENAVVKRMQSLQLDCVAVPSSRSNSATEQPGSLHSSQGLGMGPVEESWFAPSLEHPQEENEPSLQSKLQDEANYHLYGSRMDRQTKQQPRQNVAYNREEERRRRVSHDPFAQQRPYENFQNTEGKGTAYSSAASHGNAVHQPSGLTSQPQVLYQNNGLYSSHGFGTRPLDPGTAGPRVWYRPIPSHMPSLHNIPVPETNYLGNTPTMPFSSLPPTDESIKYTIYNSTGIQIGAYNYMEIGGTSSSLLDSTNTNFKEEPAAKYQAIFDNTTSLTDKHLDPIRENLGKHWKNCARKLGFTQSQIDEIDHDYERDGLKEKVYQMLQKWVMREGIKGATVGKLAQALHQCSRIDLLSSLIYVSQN
Structure (SMILES),IC50 (L929 cells),IC50 (RIPK1; [1]),IC50 (U937 cells),IC50 (RIPK1)
"O=C(NC1CCc2ccc(N3CCC4(CCOCC4)CC3)cc2-n2ccnc21)c1cc(Oc2ccccc2)ccn1 (racemic) [Compound I-62, (±)-N-(9-(3-Oxa-9-azaspiro[5.5]undecan-9-yl)-5,6-dihydro-4H-benzo[f]imidazo[1,2-a]azepin-4-yl)-4-phenoxypicolinamide]",0.0101 mM,69.5 nM,0.0301 µM,
"O=C(NC1CCc2ccccc2-n2cnnc21)c1ncn(Cc2ccccc2)n1 (racemic) [Compound I-63, (±)-1-Benzyl-N-(5,6-Dihydro-4H-benzo[f][1,2,4]triazolo[4,3-a]azepin-4-yl)-1H-1,2,4-triazole-3-carboxamide]",10 mM,134 nM,0.289 µM,
"O=C(NC1CCc2ccc(N3CCC4(CCOCC4)CC3)cc2-n2ccnc21)c1n[nH]c(Cc2ccccc2)n1 (racemic) [Compound I-64, (±)-N-(9-(3-Oxa-9-azaspiro[5.5]undecan-9-yl)-5,6-dihydro-4H-benzo[f]imidazo[1,2-a]azepin-4-yl)-5-benzyl-1H-1,2,4-triazole-3-carboxamide]",0.00406 mM,,0.0077 µM,124 nM
"O=C(NC1CCc2ccc(N3CCC4(CCOCC4)CC3)cc2-n2c1noc2=O)c1n[nH]c(Cc2ccccc2)n1 (racemic) [Compound I-65, (±)-5-Benzyl-N-(1-oxo-9-(3-oxa-9-azaspiro[5.5]undecan-9-yl)-5,6-dihydro-1H,4H-benzo[f][1,2,4]oxadiazolo[4,3-a]azepin-4-yl)-1H-1,2,4-triazole-3-carboxamide]",0.00326 mM,67.8 nM,0.0211 µM,
"O=C(NC1Cc2ccccc2-n2ccnc21)c1n[nH]c(Cc2ccccc2)n1 (racemic) [Compound I-66, (±)-5-Benzyl-N-(4,5-dihydroimidazo[1,2-a]quinolin-4-yl)-1H-1,2,4-triazole-3-carboxamide]",10 mM,13500 nM,10000 µM,
"O=C(NC1Cc2ccccc2-n2ccnc21)c1cc(Oc2ccccc2)ccn1 (racemic) [Compound I-67, (±)-N-(4,5-Dihydroimidazo[1,2-a]quinolin-4-yl)-4-phenoxypicolinamide]",10 mM,11400 nM,10000 µM,
"CC(C)(O)CCc1ccc2c(c1)-n1ccnc1C(NC(=O)c1n[nH]c(Cc3ccccc3)n1)CC2 (racemic) [Compound I-68, (±)-5-Benzyl-N-(9-(3-hydroxy-3-methylbutyl)-5,6-dihydro-4H-benzo[f]imidazo[1,2-a]azepin-4-yl)-1H-1,2,4-triazole-3-carboxamide]",0.00867 mM,118 nM,0.0252 µM,
"O=C(NC1CCc2ccccc2-n2c(Cl)cnc21)c1cc(Cc2ccccc2)on1 (racemic) [Compound I-71, (±)-5-Benzyl-N-(1-chloro-5,6-dihydro-4H-benzo[f]imidazo[1,2-a]azepin-4-yl)isoxazole-3-carboxamide]",10 mM,580 nM,3.48 µM,
"CC(C)(O)C#Cc1ccc2c(c1)-n1cnnc1C(NC(=O)c1n[nH]c(Cc3ccccc3)n1)CC2 (racemic) [Compound I-72, (±)-5-Benzyl-N-(9-(3-hydroxy-3-methylbut-1-yn-1-yl)-5,6-dihydro-4H-benzo[f][1,2,4]triazolo[4,3-a]azepin-4-yl)-1H-1,2,4-triazole-3-carboxamide]",10 mM,219 nM,0.708 µM,
"O=C(NC1CCc2ccccc2-n2c1nc(Cl)c2Cl)c1ncn(Cc2c(Cl)cccc2Cl)n1 (racemic) [Compound I-73, (±)-N-(1,2-Dichloro-5,6-dihydro-4H-benzo[f]imidazo[1,2-a]azepin-4-yl)-1-(2,6-dichlorobenzyl)-1H-1,2,4-triazole-3-carboxamide]",10 mM,92.4 nM,0.903 µM,
"O=C(NC1CCc2ccccc2-n2c(Cl)cnc21)c1ncn(Cc2c(Cl)cccc2Cl)n1 (racemic) [Compound I-74, (±)-N-(1-Chloro-5,6-dihydro-4H-benzo[f]imidazo[1,2-a]azepin-4-yl)-1-(2,6-dichlorobenzyl)-1H-1,2,4-triazole-3-carboxamide]",0.00862 mM,54 nM,0.0898 µM,
"O=C(NC1CCc2ccc(N3CCC4(CCOCC4)CC3)cc2-n2ccnc21)c1ccn(Cc2ccccc2)n1 (racemic) [Compound I-77, (±)-N-(9-(3-Oxa-9-azaspiro[5.5]undecan-9-yl)-5,6-dihydro-4H-benzo[f]imidazo[1,2-a]azepin-4-yl)-1-benzyl-1H-pyrazole-3-carboxamide]",0.00409 mM,111 nM,0.0096 µM,
"O=C(NC1CCc2ccccc2-n2c1nc(Cl)c2Cl)c1n[nH]c(Cc2ccccc2)n1 (racemic) [Compound I-80, (±)-5-Benzyl-N-(1,2-dichloro-5,6-dihydro-4H-benzo[f]imidazo[1,2-a]azepin-4-yl)-1H-1,2,4-triazole-3-carboxamide]",10 mM,1870 nM,83.4 µM,
"O=C(NC1CCc2ccccc2-n2c(Cl)cnc21)c1n[nH]c(Cc2ccccc2)n1 (racemic) [Compound I-81, (±)-5-Benzyl-N-(1-chloro-5,6-dihydro-4H-benzo[f]imidazo[1,2-a]azepin-4-yl)-1H-1,2,4-triazole-3-carboxamide]",10 mM,517 nM,4.25 µM,
"O=C(NC1CCc2ccc(N3CC4(CCOCC4)C3)cc2-n2ccnc21)c1n[nH]c(Cc2ccccc2)n1 (racemic) [Compound I-84, (±)-N-(9-(7-Oxa-2-azaspiro[3.5]nonan-2-yl)-5,6-dihydro-4H-benzo[f]imidazo[1,2-a]azepin-4-yl)-5-benzyl-1H-1,2,4-triazole-3-carboxamide]",0.00879 mM,,0.0386 µM,119 nM
"O=C(NC1CCc2ccc(N3CC4(CCOCC4)C3)cc2-n2ccnc21)c1ccn(Cc2ccccc2)n1 (racemic) [Compound I-85, (±)-N-(9-(7-Oxa-2-azaspiro[3.5]nonan-2-yl)-5,6-dihydro-4H-benzo[f]imidazo[1,2-a]azepin-4-yl)-1-benzyl-1H-pyrazole-3-carboxamide]",0.00135 mM,168 nM,0.0309 µM,
"CC(C)(O)C#Cc1ccc2c(c1)-n1ccnc1C(NC(=O)n1cc(Cc3ccc(F)cc3)cn1)CC2 (racemic) [Compound I-93, (±)-4-(4-Fluorobenzyl)-N-(9-(3-hydroxy-3-methylbut-1-yn-1-yl)-5,6-dihydro-4H-benzo[f]imidazo[1,2-a]azepin-4-yl)-1H-pyrazole-1-carboxamide]",0.00517 mM,40.4 nM,0.0371 µM,
"O=C(N[C@H]1COc2ccccc2-n2nnnc21)c1n[nH]c(Cc2ccccc2)n1 [Compound I-3, (R)-5-Benzyl-N-(4,5-dihydrobenzo[b]tetrazolo[1,5-d][1,4]oxazepin-4-yl)-1H-1,2,4-triazole-3-carboxamide]",10 mM,58.2 nM,4.08 µM,
"O=C(N[C@H]1COc2ccccc2-n2nnnc21)c1cc(Cc2ccccc2)on1 [Compound I-8, (R)-5-Benzyl-N-(4,5-dihydrobenzo[6]tetrazolo[1,5-d][1,4]oxazepin-4-yl)isoxazole-3-carboxamide]",10 mM,521 nM,4.45 µM,
